Assay results published in US20070274916A1, “Method for Identifying Compounds that Affect Expression of Tryptophan Hydroxylase Isoform 2” (priority 2003, published 2007).
Entries after “also recorded” stand apart in the source; their conditions may differ.

Key:
[1] = test system: TPH1 mRNA; assay: TPH1 mRNA levels in murine raphe slice preparation by real-time RT-PCR; assay type: in vivo, mouse
Source text: Female mice (13 to 16 wks of age) were ovariectomized (C57BL/6s from Charles River; ER Knockout animals from Taconic). Animals were fed a soy-free rodent chow and allowed a minimum of one week to recuperate from surgery and shipping. […] Approximately six hours following the fourth dose, mice were deeply anesthetized with ketamine/xylazine and brains were removed from the skull, placed ventral side up in a mouse brain block on ice, and ice-cold razor blades were inserted into the block at 1 mm intervals. The caudal extent of the hypothalamus was used as an anatomical marker for the placement of the first razor blade, and 4 blades were placed in sequential slots, caudally. The four sections were examined and the two that encompassed the greatest extent of the dorsal raphe were placed in a tube containing RNALATER (Ambion, Austin, Tex.) and placed at 4° C. overnight. Brain slices were removed from RNALATER after 24 hours and stored at −80° C. in fresh tubes.
Isolation of total RNA from mouse raphe slices for real-time PCR analysis using the TAQMAN ABI PRISMS 7700 Detection System, Applied Biosystems, Foster City, Calif. was as follows. Samples were stored in RNALATER at 4° C. overnight followed by removal of RNALATER and storage at −80° C. until isolation of the total RNA (2 slices weigh 25 to 50 mg). Slices were removed from −80° C. and placed in 1.0 mL TRIZOL Reagent in FASTPREP processing tubes. Slices were homogenized with one pass at setting 6 for 30 seconds in FASTPREP 120 homogenizer using LYSING MATRIX D tubes with bead matrix followed by 20 seconds at setting 6 after all samples had been processed. Samples were set at room temperature for 5 minutes to allow for complete dissociation of nucleoprotein complexes followed by centrifugation of the samples at 12,000×g for 5 minutes at 4° C. Homogenates were transferred to 1.5 mL; microcentrifuge tubes and 100 μL BCP (Bromo-3-chloropropane) was added. Samples were vortexed for 15 seconds and set at room temperature for 2 to 3 minutes. Samples were centrifuged at 12,000×g for 15 minutes at 4° C. The aqueous layer was removed and placed in a new RNAse-free sterile 1.5 mL microcentrifuge tube. Five μL of 5 mg/μL glycogen was added to each sample and the samples were vortexed. Five hundred μL of isopropanol was added to each sample. The samples were vortexed for 15 seconds, set at room temperature 10 minutes, followed by centrifugation at 12,000×g for 15 minutes at 4° C. Supernatants were decanted and pellets washed with 500 μL ice cold 75% ethanol. Samples were centrifuged at 12,000×g for 15 minutes at 4° C., ethanol decanted, and pellets air dried for 10 minutes. Pellets were resuspended in 30 μL prewarmed RNASECURE (60° C.), and heated at 60° C. for 10 min. Samples were stored at −80° C. until DNAse treatment and cDNA synthesis.
DNase treatment and cDNA preparation with wt mouse raphe slice total RNA for TAQMAN analysis. DNase treatment using DNA-free kit (Ambion). Five μg of the total RNA sample was aliquotted to each well of a 96 well plate. An 1× DNase I solution was added to each sample (DNase I buffer, DNase I, H2O). Reactions were mixed and incubated at 37° C. for 30 minutes. Reactions were inactivated by addition of DNase inactivation reagent beads, mixed well at room temperature for 3 minutes and centrifuged at 2,500 RPM for 1 minutes at 4° C. (25 μL reactions were run and inactivated with 1/10 volume of inactivation reagent).
Reverse Transcription. A 10 μL of the DNase I-treated total RNA was added to 40 μL of 1× reverse transcription reaction mix (DEPC treated H2O, RT buffer, MgCl2, dNTP mix, random hexamers, RNase inhibitor, and MULTISCRIBE RT) and incubated at 25° C. for 10 minutes, 48° C. for 30 minutes, and 95° C. for 5 minutes. Reverse transcription was halted by the addition of EDTA. Samples were transferred to a storage plate and stored at −20° C. […]

[2] = test system: TPH2 mRNA; assay: TPH2 mRNA levels in raphe slice preparations from intact male mice by real-time RT-PCR; assay type: in vivo, mouse
Experimental: Ovariectomized C57/BL6 female mice (13 to 16 wks of age) were from Charles River Laboratories and intact C57/BL6 male mice (13 to 16 wks of age) were from Taconic Laboratories. Animals were fed a soy-free rodent chow and allowed a minimum of one week to recuperate from surgery and shipping. Mice were dosed subcutaneously in the morning (once daily for 4 days) with 0.1 cc of vehicle (sesame oil) or compound (dose is indicated for each experiment). Approximately six hours following the fourth dose, mice were deeply anesthetized with ketamine/xylazine.
For real-time RT-PCR analyses brains were removed from the skull, placed ventral side up in a mouse brain block on ice, and ice-cold razor blades are inserted into the block at 1 mm intervals. The caudal extent of the hypothalamus was used as an anatomical marker for the placement of the first razor blade, and 4 blades are placed in sequential slots, caudally. The four sections are examined and the two that encompass the greatest extent of the dorsal raphe are placed in a tube containing RNA-later and placed at 4° C. overnight. Brain slices were removed from RNALATER (Ambion) after 24 hr and stored at −80° C. in fresh tubes. An n of seven animals was used per treatment group for real-time RT-PCR studies. For in situ hybridization histochemistry brains are removed from the skull and placed ventral side up on powdered dry ice and frozen brains are stored at −80° C. until sectioning. An n of 5 to 6 animals was used per treatment group for in situ hybridization histochemistry analyses.
The murine TPH2 primers were mTPH2-514F and mTPH2-585R and the murine TPH2 probe was mTPH2-565T. mTPH2-565T was labeled with the fluorescent dye FAM and the quencher TAMRA.
Isolation of total RNA from murine raphe slices for TAQMAN analysis has been described in Example 2. Genomic DNA was removed from the total RNA samples using the DNA-FREE kit (Ambion) and cDNA synthesis performed using Multiscribe RT and the TaqMan Gold RT reagents (ABI). Reverse transcription was halted by the addition of EDTA. Samples were transferred to a storage plate and stored at −20° C.
Real-time PCR analyses using TAQMAN was as follows. A 2.5 μL of cDNA was added to each well of a 96well plate with 22.5 μl of TaqMan® reaction mix (1× Universal Master Mix (ABI), 20 nM forward and reverse 18S rRNA control primers, and 100 nM 18S rRNA control probe (ABI) and 300 nM mTPH2-514F and mTPH2-585R primers, 200 nM mTPH2-565T probe. Samples were run on an ABI PRISM 7700 Sequence Detection Instrument (Applied Biosystems (ABI), Foster City, Calif.) and collected data was analyzed using Merck Biometrics TAQMAN Plus program and statistical significance determined using a one-way ANOVA (CMG, Merck Biometrics).

Which results are given for C[C@@H]1C[C@H]2[C@@H]3CCC4=CC(=O)C=C[C@]4(C)[C@@]3(F)[C@@H](O)C[C@]2(C)[C@@]1(O)C(=O)CO [dexamethasone]?
effect on TPH1 mRNA levels ([1]; 3 mpk s.c., ovariectomized mice, FIG. 6): no effect; reduction in TPH2 mRNA levels ([2]; 1 mpk once daily for four days, FIG. 15): 26%

For CC#C[C@]1(O)CC[C@H]2[C@@H]3CCC4=CC(=O)CCC4=C3[C@@H](c3ccc(N(C)C)cc3)C[C@@]21C [mifepristone], which “change of TPH1 mRNA levels in response to treatment” value ([1]; murine raphe slice preparations, dose not stated, FIG. 6) is on record?
The value was “no detectable change”.

What about the “effect on the dexamethasone reduction of TPH2 mRNA levels” value ([2]; co-administered with 1 mg/kg dexamethasone, FIG. 15, 1 mg/kg) of the same compound?
The value was “blocked; also recorded: antagonizes”.

What about the “effect on TPH2 message levels” value ([2]; mifepristone alone, 30 mg/kg) of the same compound?
The value was “no effect”.

C[C@]12CC[C@@H]3c4ccc(O)cc4CC[C@H]3[C@@H]1CC[C@@H]2O [17β-estradiol] was tested. Which “TPH1 mRNA induction in raphe slice” value ([1]; 0.2 mpk s.c. once daily for four days, ovariectomized mice, FIG. 6) did it give?
Its value is 1.8 fold.

And the “effect on TPH1 mRNA in the DRN” value ([1]; male and female mice, data not shown)?
The value was “induces”.

What about the “effect on TPH2 mRNA levels” value ([2]; dose not stated) of the same compound?
Its value is “no effect”.
